Measurements taken from ChEMBL document CHEMBL1201862, “PubChem BioAssay data set” (2004).
Activity calls are given as the source filed them.

Key:
[1] = molecular target: Cytochrome P450 2D6 (Homo sapiens, UniProt P10635); assay: qHTS Assay for Inhibitors and Substrates of Cytochrome P450 2D6. [Related pubchem assays: 410 ]; format: ADME; details: read-out: Potency
[2] = inhibitors of intracellular T. cruzi replication, confirmation, NIH3T3 host cells, beta-gal luminescence (AID 2044); format: functional, cell-based;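 note: intracellular parasites grown in NIH/3T3 mouse fibroblasts as host cells; luminescent beta-galactosidase reporter signal from transgenic T. cruzi replicating inside host cells; inhibitors lower the luminescence signal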
[3] = microbe, parasite or virus in culture; format: functional; details: Mycobacterium tuberculosis
[4] = cytotoxicity toward NIH3T3 fibroblasts, dose response, counter-screen, cell-based, ATP luminescence, mouse fibroblasts (AID 2010); format: functional;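 note: cells exposed to compound for about 90 hours before reading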
[5] = system: INS1; assay: beta cell apoptosis inhibitors, cytokine rescue, dose response, luminescence, retest (AID 449756); format: functional, cell-based; details: Rattus norvegicus;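 note: cell death triggered by IL-1 beta plus TNF-alpha plus IFN-gamma mixture; protective hits raise ATP signal compared with cytokine alone wells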
[6] = cells
[7] = molecular target: Luciferin 4-monooxygenase (Photinus pyralis, UniProt P08659); assay: firefly luciferase enzyme inhibitors, dose response, biochemical, luminescence (AID 1891)
[8] = Luminescence Cell-Based Dose Confirmation HTS to Identify Inhibitors of Platelet Dense Granule Release. [Related pubchem assays: 1663 (Primary HTS), 1678 (Summary of Project)]; format: functional
[9] = molecular target: Protein-tyrosine kinase 2-beta (Homo sapiens, UniProt Q14289);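 note: potency of inhibitors of PYK2 kinase phosphorylation of poly-GT substrate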
[10] = Luminescence Cell-Based Dose Response to Identify Activators of 5'UTR Stem-Loop Driven Prion Protein mRNA Translation in H4-C Neuroglioblastoma Cells. [Related pubchem assays: 1829 (Project Summary), 1814 (Primary HTS)]; format: functional
[11] = Luminescence Cell-Based Dose Confirmation HTS to Identify Activators of 5'UTR Stem-Loop Driven Alpha-Synuclein mRNA Translation in H4 Neuroglioblastoma Cells. [Related pubchem assays: 1829 (Project Summary), 1814 (Primary HTS)]; format: functional
[12] = Luminescence Cell-Based Dose Response HTS to Identify Activators of Luciferase Translation or Activity in H4 […] Cells. [Related pubchem assays: 1829 (Project Summary), 1814 (Primary HTS)]; format: functional
[13] = system: H4; assay: Luminescence Cell-Based Dose Response HTS to Identify Activators of 5'UTR Stem-Loop Driven Prion Protein mRNA Translation in H4 Neuroglioblastoma Cells. [Related pubchem assays: 1829 (Project Summary), 1814 (Primary HTS)]; format: functional; details: Homo sapiens
[14] = Luminescence Cell-Based Dose Response to Identify Activators of Luciferase Translation or Activity in H4-C Neuroglioblastoma Cells. [Related pubchem assays: 1829 (Project Summary), 1814 (Primary HTS)]; format: functional
[15] = Luminescence Cell-Based Dose Confirmation to Identify Activators of 5'UTR Stem-Loop Driven Alpha-Synuclein mRNA Translation in H4 Neuroglioblastoma Cells. [Related pubchem assays: 1829 (Project Summary), 1814 (Primary HTS)]; format: functional
[16] = molecular target: Sphingosine 1-phosphate receptor 2 (Homo sapiens, UniProt O95136); assay: Dose Response Cell Based Assay for Antagonists of the S1P2 Receptor. [Related pubchem assays: 856, 736 ]; format: functional
[17] = molecular target: Peroxisome proliferator-activated receptor gamma/Nuclear receptor coactivator 2 (Homo sapiens, UniProt P37231); format: functional;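 note: agonist potency for raising coactivator recruitment to the receptor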
[18] = molecular target: Peroxisome proliferator-activated receptor gamma/Nuclear receptor coactivator 1 (Homo sapiens, UniProt P37231); format: functional;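 note: agonist potency as compounds enhance coactivator SRC-1 recruitment to PPARgamma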
[19] = molecular target: Peroxisome proliferator-activated receptor gamma/Nuclear receptor coactivator 3 (Homo sapiens, UniProt P37231); format: functional;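 note: agonist potency for raising coactivator recruitment to the receptor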
Peroxisome proliferator-activated receptor gamma/Nuclear receptor coactivator 3, sequence (P37231 whole entry): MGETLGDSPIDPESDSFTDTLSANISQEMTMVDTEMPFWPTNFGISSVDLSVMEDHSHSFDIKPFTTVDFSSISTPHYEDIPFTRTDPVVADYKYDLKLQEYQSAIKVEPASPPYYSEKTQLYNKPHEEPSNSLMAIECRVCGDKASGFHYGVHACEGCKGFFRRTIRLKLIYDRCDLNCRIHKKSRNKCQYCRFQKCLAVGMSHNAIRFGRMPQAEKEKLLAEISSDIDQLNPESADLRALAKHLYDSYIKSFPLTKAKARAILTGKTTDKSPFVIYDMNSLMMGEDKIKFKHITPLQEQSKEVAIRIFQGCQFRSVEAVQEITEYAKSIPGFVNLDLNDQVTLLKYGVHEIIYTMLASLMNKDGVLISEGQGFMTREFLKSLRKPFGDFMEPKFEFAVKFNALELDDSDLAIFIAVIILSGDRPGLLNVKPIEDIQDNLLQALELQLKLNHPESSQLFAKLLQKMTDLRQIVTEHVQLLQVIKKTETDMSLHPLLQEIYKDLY
Peroxisome proliferator-activated receptor gamma/Nuclear receptor coactivator 3, sequence (Q9Y6Q9 whole entry, further chain): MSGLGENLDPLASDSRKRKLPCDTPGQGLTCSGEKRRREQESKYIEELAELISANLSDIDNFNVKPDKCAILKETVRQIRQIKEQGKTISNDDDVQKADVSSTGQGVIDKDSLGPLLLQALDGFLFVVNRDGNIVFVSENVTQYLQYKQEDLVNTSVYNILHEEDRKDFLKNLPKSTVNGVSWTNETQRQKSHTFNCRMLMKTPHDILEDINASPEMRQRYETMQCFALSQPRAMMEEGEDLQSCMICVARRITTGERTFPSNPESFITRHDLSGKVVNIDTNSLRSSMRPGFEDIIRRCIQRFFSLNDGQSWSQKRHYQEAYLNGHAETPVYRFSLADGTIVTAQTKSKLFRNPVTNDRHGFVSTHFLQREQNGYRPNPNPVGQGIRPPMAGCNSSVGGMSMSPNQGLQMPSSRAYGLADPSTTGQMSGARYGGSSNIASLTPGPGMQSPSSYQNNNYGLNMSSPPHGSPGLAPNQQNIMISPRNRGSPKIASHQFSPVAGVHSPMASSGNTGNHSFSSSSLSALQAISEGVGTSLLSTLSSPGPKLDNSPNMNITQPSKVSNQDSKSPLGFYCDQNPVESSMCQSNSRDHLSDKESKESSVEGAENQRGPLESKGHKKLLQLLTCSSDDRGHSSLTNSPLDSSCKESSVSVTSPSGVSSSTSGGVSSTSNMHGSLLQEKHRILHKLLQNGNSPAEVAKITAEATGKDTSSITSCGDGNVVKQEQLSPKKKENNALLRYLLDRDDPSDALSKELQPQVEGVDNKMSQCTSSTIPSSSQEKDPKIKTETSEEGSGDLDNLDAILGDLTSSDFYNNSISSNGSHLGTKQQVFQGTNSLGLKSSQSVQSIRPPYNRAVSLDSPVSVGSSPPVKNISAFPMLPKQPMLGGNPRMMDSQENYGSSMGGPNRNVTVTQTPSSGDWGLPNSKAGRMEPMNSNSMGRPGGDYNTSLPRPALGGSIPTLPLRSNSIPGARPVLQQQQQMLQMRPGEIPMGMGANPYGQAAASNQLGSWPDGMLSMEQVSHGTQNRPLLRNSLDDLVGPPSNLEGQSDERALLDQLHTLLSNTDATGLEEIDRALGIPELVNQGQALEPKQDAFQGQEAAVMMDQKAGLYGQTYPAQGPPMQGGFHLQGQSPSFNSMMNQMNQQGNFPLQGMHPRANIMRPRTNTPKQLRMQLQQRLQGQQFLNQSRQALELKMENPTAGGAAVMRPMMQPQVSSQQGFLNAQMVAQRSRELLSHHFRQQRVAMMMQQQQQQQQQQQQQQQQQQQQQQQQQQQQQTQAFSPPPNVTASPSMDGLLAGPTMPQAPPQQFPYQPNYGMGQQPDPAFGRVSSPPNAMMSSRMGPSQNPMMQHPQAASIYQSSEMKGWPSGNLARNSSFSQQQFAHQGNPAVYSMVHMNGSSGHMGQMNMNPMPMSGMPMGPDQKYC

Peroxisome proliferator-activated receptor gamma/Nuclear receptor coactivator 1, sequence (P37231 whole entry): as the sequence (P37231 whole entry) above
Peroxisome proliferator-activated receptor gamma/Nuclear receptor coactivator 1, sequence (Q15788 whole entry, further chain): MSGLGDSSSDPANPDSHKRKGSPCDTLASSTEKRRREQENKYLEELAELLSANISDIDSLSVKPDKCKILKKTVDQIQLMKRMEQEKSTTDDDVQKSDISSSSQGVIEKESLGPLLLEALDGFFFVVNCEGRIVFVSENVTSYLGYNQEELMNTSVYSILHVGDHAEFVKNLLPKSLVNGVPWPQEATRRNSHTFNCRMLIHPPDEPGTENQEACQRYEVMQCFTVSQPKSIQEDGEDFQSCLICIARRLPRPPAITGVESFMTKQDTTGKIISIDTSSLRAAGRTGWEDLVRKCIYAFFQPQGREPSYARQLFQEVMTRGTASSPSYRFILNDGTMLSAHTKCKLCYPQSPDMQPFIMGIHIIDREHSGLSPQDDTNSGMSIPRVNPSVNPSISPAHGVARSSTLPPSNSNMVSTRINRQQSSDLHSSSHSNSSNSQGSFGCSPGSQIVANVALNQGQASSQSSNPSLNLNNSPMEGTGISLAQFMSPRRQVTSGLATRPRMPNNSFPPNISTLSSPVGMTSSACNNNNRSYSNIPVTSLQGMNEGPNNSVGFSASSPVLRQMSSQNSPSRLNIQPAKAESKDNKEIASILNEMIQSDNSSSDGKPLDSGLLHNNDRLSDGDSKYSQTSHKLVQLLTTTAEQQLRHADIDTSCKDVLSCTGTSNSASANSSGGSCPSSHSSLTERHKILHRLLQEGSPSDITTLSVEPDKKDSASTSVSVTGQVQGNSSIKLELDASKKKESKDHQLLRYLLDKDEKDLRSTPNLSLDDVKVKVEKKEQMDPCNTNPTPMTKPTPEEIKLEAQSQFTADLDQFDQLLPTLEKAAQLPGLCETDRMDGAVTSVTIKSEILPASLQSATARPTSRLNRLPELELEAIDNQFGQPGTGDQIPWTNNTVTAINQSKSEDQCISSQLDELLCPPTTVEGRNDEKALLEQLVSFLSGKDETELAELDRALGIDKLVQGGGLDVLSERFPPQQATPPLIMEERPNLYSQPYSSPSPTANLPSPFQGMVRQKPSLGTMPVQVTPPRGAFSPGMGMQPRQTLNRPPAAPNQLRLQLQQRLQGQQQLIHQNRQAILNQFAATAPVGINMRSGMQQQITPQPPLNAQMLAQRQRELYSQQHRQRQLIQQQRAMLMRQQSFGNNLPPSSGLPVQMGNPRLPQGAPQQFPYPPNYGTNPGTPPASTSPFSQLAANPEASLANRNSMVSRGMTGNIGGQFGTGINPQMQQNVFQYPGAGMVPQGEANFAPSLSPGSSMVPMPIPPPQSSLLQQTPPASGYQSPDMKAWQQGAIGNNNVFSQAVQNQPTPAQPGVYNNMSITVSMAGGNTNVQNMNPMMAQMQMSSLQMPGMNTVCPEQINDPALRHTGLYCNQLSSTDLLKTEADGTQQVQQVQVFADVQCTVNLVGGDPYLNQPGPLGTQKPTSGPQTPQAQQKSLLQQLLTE
Cytochrome P450 2D6, sequence (P10635 whole entry): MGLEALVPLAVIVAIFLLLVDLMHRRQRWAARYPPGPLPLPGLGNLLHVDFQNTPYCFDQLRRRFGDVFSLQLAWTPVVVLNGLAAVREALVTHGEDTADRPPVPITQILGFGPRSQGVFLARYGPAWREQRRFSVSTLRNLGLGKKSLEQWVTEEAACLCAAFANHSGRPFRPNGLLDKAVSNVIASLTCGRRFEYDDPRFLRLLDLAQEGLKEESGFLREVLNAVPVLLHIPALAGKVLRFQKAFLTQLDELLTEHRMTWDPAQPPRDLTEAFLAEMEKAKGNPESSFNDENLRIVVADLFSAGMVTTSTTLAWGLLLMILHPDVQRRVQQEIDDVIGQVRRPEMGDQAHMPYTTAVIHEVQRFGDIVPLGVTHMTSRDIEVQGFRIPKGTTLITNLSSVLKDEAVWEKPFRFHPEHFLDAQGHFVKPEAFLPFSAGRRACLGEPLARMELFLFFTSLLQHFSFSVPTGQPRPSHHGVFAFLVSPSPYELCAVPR
Luciferin 4-monooxygenase, sequence (P08659 whole entry): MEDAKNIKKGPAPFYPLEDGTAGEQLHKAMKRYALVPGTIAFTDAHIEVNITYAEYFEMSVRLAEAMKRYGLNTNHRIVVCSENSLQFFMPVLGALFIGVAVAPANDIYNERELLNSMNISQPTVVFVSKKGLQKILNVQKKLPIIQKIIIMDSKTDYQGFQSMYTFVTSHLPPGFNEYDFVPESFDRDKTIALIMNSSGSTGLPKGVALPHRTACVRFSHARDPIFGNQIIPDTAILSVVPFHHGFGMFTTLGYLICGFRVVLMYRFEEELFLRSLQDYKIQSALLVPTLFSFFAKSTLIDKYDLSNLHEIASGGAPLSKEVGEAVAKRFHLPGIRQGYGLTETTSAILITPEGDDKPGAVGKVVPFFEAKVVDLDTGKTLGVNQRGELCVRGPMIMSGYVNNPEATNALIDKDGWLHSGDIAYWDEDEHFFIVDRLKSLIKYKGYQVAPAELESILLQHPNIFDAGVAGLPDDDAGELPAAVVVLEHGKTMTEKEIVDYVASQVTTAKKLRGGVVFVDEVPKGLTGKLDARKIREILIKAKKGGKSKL

CC(C)[C@@]1(NC(=O)[C@@H]2C[C@H]3c4cccc5[nH]cc(c45)C[C@@H]3N(C)C2)O[C@@]2(O)[C@H]3CCCN3C(=O)[C@@H](Cc3ccccc3)N2C1=O
AC50 [1]: 31.6 µM (inconclusive)

COc1ccc(-c2cc3ccccc3oc2=O)cc1NC(=O)c1ccc([N+](=O)[O-])o1
EC50 [2]: < 0.1 µM (active)
CC50 [3]: > 40 µM (active)
EC50 [4]: 9.47 µM (active)
AC50 [5]: 10.7 µM (active)
EC50 [6]: 0.262 µM (active)

CN1C(=O)/C(=C/c2cn(CC(=O)N3CCCCC3)c3ccccc23)c2ccccc21
EC50 [7]: > 112 µM (not active)
EC50 [8]: > 112 µM (not active)
IC50 [9]: 46.6 µM (not active)

c1ccc2c(c1)Cn1nc(Cc3nc4c(s3)CCCC4)nc1-2
EC50 [10]: > 12 µM (not active)
EC50 [11]: < 0.1 µM (active)
EC50 [12]: 7.06 µM (active)
EC50 [13]: 10.3 µM (active)
EC50 [14]: > 12 µM (not active)
EC50 [15]: > 3.8 µM (not active)

COC(=O)c1sc2cc(C(F)(F)F)cnc2c1-c1ccccn1
IC50 [16]: > 30 µM (not active)

S=C(NCc1ccc(Cl)cc1Cl)Nc1ccccc1
EC50 [17]: > 79.4 µM (not active)
EC50 [18]: > 79.4 µM (not active)
EC50 [19]: 67.3 µM (not active)

O=C(CCN1C(=O)c2ccccc2C1=O)Nc1ccc(-c2nc3ccccc3o2)cc1
EC50 [17]: 71.6 µM (not active)
EC50 [18]: 74.4 µM (not active)
EC50 [19]: > 79.4 µM (not active)
